Data taken from US11578084B2, “Condensed ring compounds having dopamine D3 receptor antagonistic effect” (Shionogi & Co., Ltd., priority 2018, dated 2023).
Like-named read-outs stand apart in the source and are kept apart here.

Legend:
[1] = target: human recombinant dopamine D3 receptor (Homo sapiens (Human), UniProt P35462); assay: Test of binding inhibition for dopamine D3 receptor ([3H]-Methylspiperone SPA); details: Jump-In HEK cell membranes, 2 nM [3H]-Methylspiperone, 120 min at 25° C.; read-out: hD3_Ki
human recombinant dopamine D3 receptor, sequence (P35462 whole entry): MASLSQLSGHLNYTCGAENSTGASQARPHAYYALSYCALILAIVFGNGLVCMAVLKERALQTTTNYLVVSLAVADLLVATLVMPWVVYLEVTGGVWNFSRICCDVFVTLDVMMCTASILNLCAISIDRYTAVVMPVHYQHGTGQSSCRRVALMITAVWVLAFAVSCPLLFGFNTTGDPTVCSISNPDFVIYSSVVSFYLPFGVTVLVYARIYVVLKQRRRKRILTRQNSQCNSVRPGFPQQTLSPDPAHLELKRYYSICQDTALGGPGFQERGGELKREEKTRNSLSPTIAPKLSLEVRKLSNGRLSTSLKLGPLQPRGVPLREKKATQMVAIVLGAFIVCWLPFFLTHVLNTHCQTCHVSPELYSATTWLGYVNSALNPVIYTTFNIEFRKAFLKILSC
Procedure, shortened: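 SPA radioligand binding on Jump-In HEK membranes expressing human D3 receptor (4 µg/well) with 2 nM [3H]-methylspiperone (final), incubated 120 min at 25 °C. Non-specific binding defined with 10 µM butaclamol. Percent inhibition computed against total and non-specific binding; Ki from dose-response curves.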

[2] = target: human recombinant dopamine D2 receptor (Homo sapiens (Human), UniProt P14416); assay: Test of binding inhibition for dopamine D2 receptor ([3H]-Methylspiperone SPA); details: Jump-In HEK cell membranes, read-out: hD2_Ki
human recombinant dopamine D2 receptor, sequence (P14416 whole entry): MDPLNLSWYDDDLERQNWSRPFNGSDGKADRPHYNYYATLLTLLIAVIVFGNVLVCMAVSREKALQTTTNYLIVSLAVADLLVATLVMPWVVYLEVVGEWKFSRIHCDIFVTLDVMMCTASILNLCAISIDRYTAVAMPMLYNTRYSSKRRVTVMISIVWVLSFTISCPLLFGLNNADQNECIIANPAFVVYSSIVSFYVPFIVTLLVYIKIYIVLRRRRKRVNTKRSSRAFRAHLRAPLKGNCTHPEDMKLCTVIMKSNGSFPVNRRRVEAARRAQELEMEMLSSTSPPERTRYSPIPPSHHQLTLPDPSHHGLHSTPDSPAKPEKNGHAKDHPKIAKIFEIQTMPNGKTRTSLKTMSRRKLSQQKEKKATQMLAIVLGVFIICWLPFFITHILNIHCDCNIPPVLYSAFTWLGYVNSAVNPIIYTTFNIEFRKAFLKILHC
Procedure, shortened: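 Scintillation proximity competition binding of [3H]-Methylspiperone to Jump-In HEK membranes expressing human D2 (2 μg protein/well) on WGA SPA beads (0.2 mg/well), 120 min at 25° C.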

[3] = target: hERG channel (IKr) (Homo sapiens (Human), UniProt Q12809); assay: hERG test (whole cell patch clamp, IKr); format: cell-based; details: human, CHO cells expressing hERG channel, pH 7.4, 3 μM, tail peak current
hERG channel (IKr), sequence (Q12809 whole entry): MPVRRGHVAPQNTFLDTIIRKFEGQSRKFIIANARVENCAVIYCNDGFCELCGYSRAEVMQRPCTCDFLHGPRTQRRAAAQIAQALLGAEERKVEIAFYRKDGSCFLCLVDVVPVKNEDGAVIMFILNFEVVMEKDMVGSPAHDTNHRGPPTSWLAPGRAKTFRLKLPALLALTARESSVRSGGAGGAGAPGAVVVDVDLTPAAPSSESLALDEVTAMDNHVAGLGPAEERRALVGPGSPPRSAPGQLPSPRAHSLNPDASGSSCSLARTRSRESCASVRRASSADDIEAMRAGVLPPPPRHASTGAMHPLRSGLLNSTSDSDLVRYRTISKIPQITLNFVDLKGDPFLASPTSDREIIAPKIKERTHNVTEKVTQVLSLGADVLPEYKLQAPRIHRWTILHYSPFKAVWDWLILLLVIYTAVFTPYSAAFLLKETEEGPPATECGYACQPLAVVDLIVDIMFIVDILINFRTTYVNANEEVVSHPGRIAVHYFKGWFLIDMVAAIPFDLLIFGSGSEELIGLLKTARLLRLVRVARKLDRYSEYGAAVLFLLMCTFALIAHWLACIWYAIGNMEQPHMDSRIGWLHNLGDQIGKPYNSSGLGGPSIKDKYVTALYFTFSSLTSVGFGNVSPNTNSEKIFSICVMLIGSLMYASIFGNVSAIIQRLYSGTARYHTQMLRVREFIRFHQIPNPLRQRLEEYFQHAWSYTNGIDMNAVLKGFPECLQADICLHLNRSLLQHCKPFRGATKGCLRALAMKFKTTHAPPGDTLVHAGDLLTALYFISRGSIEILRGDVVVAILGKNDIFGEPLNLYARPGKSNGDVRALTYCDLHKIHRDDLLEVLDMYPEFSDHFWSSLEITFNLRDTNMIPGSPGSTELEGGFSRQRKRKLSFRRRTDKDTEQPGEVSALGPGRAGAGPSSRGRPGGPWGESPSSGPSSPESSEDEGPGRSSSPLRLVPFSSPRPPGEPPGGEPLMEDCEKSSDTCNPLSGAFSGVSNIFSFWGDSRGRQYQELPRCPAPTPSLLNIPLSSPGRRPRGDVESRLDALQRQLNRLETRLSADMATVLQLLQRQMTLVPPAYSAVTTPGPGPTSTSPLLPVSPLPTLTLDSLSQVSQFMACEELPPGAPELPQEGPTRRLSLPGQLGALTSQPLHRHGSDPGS
Description: Test Example 10: hERG Test
For the purpose of assessing risk of an electrocardiogram QT interval prolongation of the compound of the present invention, effects of the compound of the present invention on delayed rectifier K+ current (IKr), which plays an important role in the ventricular repolarization process, was studied using CHO cells expressing human ether-a-go-go related gene (hERG) channel.
After a cell was retained at a membrane potential of −80 mV by whole cell patch clamp method using an automated patch clamp system (QPatch; Sophion Bioscience A/S) and gave a leak potential of −50 mV, IKr induced by depolarization pulse stimulation at +20 mV for 2 seconds and, further, repolarization pulse stimulation at −50 mV for 2 seconds, was recorded. After the generated current was stabilized, extracellular solution (NaCl: 145 mmol/L, KCl: 4 mmol/L, CaCl2): 2 mmol/L, MgCl2: 1 mmol/L, glucose: 10 mmol/L, HEPES (4-(2-hydroxyethyl)-1-piperazineethanesulfonic acid): 10 mmol/L, pH=7.4), in which the compound of the present invention had been dissolved at an objective concentration in the extracellular solution, was applied to the cell at room temperature for 7 minutes or more. From the recording IKr, an absolute value of the tail peak current was measured based on the current value at the resting membrane potential using analysis software (QPatch Assay software; Sophion Bioscience A/S). Further, the % inhibition of tail peak current for the compound of the present invention relative to the tail peak current after application of the solution (0.1% dimethyl sulfoxide solution) was calculated to assess influence of the compound of the present invention on IKr.

[4] = Solubility test (1% DMSO addition, JP-1 fluid or JP-2 fluid); format: physicochemical; details: 25 °C, kinetic from dmso stock
Method: Test Example 11: Solubility Test The solubility of the compound of the present invention was determined under 1% DMSO addition conditions. A 10 mmol/L solution of the compound was prepared with DMSO. 2 μL of the solution of the compound of the present invention was respectively added to 198 μL of JP-1 fluid or JP-2 fluid, or 6 μL of the solution of the compound of the present invention was respectively added to 594 μL of JP-1 fluid or JP-2 fluid. The mixture was left standing for 16 hours at 25° C. (condition 1) or shaking at room temperature for 3 hours (condition 2), and the mixture was vacuum-filtered. The filtrates were diluted 10- or 100-fold with methanol/water=1/[…]) or acetonitrile/methanol/water=1/1/[…]/V), and concentrations in the filtrates were measured by the absolute calibration curve method using LC/MS or solid-phase extraction (SPE)/MS. The dilution rate or dilution solvent was changed as necessary. The composition of the JP-1 fluid was as below. Water was added to 2.0 g of sodium chloride and 7.0 mL of hydrochloric acid to reach 1000 mL. The composition of the JP-2 fluid was as below. Composition 1. 3.40 g of potassium dihydrogen phosphate and 3.55 g of anhydrous disodium hydrogen phosphate were dissolved in water to reach 1000 mL. Composition 2. 1 volume of water was added to 1 volume of the solution in which 3.40 g of potassium dihydrogen phosphate and 3.55 g of anhydrous disodium hydrogen phosphate were dissolved in water to reach 1000 mL.

[5] = 1.2 nM [3H]-Methylspiperone, 120 min at 25° C.
[6] = pH 1.2, simulated gastric fluid, JP-1 fluid, read-out: Solubility JP-1
[7] = pH 6.8, aqueous buffer, JP-2 fluid, read-out: Solubility JP-2

O=C(N[C@H]1CC[C@H](CCN2CCc3nc(OCC(F)(F)F)sc3CC2)CC1)c1cccnc1C(F)F [Example I-048]
Ki [1]: 0.048 nM | Ki [2, 5]: 390 nM | inhibition at 3 µM [3]: 3.52%

Cn1c(C(=O)N[C@H]2CC[C@H](CCN3CCc4nc(OCC(C)(F)F)sc4CC3)CC2)cccc1=O [Example I-056]
Ki [1]: 0.24 nM | Ki [2, 5]: 490 nM | inhibition at 3 µM [3]: 10.7%

Cn1cc(CC(=O)N[C@H]2CC[C@](F)(CCN3CCc4nc(OCC(F)F)sc4CC3)CC2)cn1 [Example I-059]
Ki [1]: 0.69 nM | Ki [2, 5]: > 1700 nM | inhibition at 3 µM [3]: 6.72%

Cc1ncc(CC(=O)N[C@H]2CC[C@](F)(CCN3CCc4nc(OCC(F)F)sc4CC3)CC2)o1 [Example I-060]
Ki [1]: 0.59 nM | Ki [2, 5]: 1400 nM | inhibition at 3 µM [3]: 17.7%

Cn1cc2ccc(C(=O)N[C@H]3CC[C@H](CCN4CCc5nc(OCC(C)(F)F)sc5CC4)OC3)cc2n1 [Example I-066]
Ki [1]: 0.37 nM | Ki [2, 5]: 770 nM | inhibition at 3 µM [3]: 14.3%

Cc1ncc(OCC(=O)N[C@H]2CC[C@H](CCN3CCc4sc(C5CC(F)(F)C5)nc4C3)CC2)cn1 [Example I-069]
Ki [1]: 0.49 nM | Ki [2, 5]: 670 nM | inhibition at 3 µM [3]: 34.2%

Cc1nnc(CC(=O)N[C@H]2CC[C@H](CCN3CCc4sc(C5CC(F)(F)C5)nc4C3)CC2)s1 [Example I-071]
Ki [1]: 0.16 nM | Ki [2, 5]: 450 nM | inhibition at 3 µM [3]: 16.6%

Cc1nnc(CC(=O)N[C@H]2CC[C@](F)(CCN3CCc4nc(OCC(C)(F)F)sc4CC3)CC2)s1 [Example I-073]
Ki [1]: 0.29 nM | Ki [2, 5]: 450 nM | inhibition at 3 µM [3]: 25.9%

Cn1cc(/C=C/C(=O)N[C@H]2CC[C@](F)(CCN3CCc4nc(OCC(C)(F)F)sc4CC3)CC2)cn1 [Example I-074]
Ki [1]: 0.025 nM | Ki [2, 5]: 63 nM | inhibition at 3 µM [3]: 31%

Cn1cc(OCC(=O)N[C@H]2CC[C@](F)(CCN3CCc4nc(OCC(C)(F)F)sc4CC3)CC2)cn1 [Example I-075]
Ki [1]: 0.22 nM | Ki [2, 5]: 240 nM | inhibition at 3 µM [3]: 33.8%

CC[C@@H](C)Oc1ccc2c(n1)CCN(CC[C@H]1CC[C@H](NC(=O)c3cccc4nn(C)cc34)CC1)CC2 [Example I-076]
Ki [1]: 0.1 nM | Ki [2, 5]: > 1900 nM | inhibition at 3 µM [3]: 13.4%

Cn1cc2c(C(=O)NN3CCC(CCN4CCc5sc(OCC(C)(F)F)nc5C4)CC3)cccc2n1 [Example I-077]
Ki [1]: 0.38 nM | Ki [2, 5]: > 1800 nM | inhibition at 3 µM [3]: 4.33%

Cn1c(C(=O)NN2CCC(CCN3CCc4sc(OCC(F)(F)F)nc4C3)CC2)cccc1=O [Example I-080]
Ki [1]: 0.81 nM | Ki [2, 5]: 2100 nM | inhibition at 3 µM [3]: 5.68%

Cn1cc2c(C(=O)NN3CCC(CCN4CCc5sc(OCC(F)(F)F)nc5C4)CC3)ccc(F)c2n1 [Example I-081]
Ki [1]: 0.2 nM | Ki [2, 5]: 640 nM | inhibition at 3 µM [3]: 5.59%

Cc1ncc(/C=C/C(=O)N[C@H]2CC[C@H](CCN3CCc4nc(OC5CC(F)(F)C5)sc4CC3)CC2)cn1 [Example I-082]
Ki [1]: 0.086 nM | Ki [2, 5]: 670 nM | inhibition at 3 µM [3]: 11.1%

C[C@@H](Oc1nc2c(s1)CCN(CC[C@H]1CC[C@H](NC(=O)c3cccc4nn(C)cc34)CC1)CC2)C(F)(F)F [Example I-083]
Ki [1]: 0.16 nM | Ki [2, 5]: > 2200 nM | inhibition at 3 µM [3]: 25.1%

CCc1ncccc1C(=O)N[C@H]1CC[C@H](CCN2CCc3ccc(OC4CCC4)nc3CC2)CC1 [Example I-088]
Ki [1]: 0.8 nM | Ki [2, 5]: 1300 nM | inhibition at 3 µM [3]: 32%

Cc1ncccc1C(=O)N[C@H]1CC[C@H](CCN2CCc3nc(OCCC(F)(F)F)sc3CC2)CC1 [Example I-099]
Ki [1]: 0.97 nM | Ki [2, 5]: 1600 nM | inhibition at 3 µM [3]: 29.4%

Cc1nnc(CC(=O)N[C@H]2CC[C@H](CCN3CCc4nc(OCCC(F)(F)F)sc4CC3)CC2)o1 [Example I-100]
Ki [1]: 0.72 nM | Ki [2, 5]: 1500 nM | inhibition at 3 µM [3]: 33.9%

Cn1cc(CC(=O)N[C@H]2CC[C@H](CCN3CCc4nc(OCCC(F)(F)F)sc4CC3)CC2)cn1 [Example I-101]
Ki [1]: 0.3 nM | Ki [2, 5]: 2200 nM | inhibition at 3 µM [3]: 34.9%

Cc1ncc(CC(=O)N[C@H]2CC[C@H](CCN3CCc4nc(OCCC(F)(F)F)sc4CC3)CC2)o1 [Example I-102]
Ki [1]: 0.13 nM | Ki [2, 5]: 670 nM | inhibition at 3 µM [3]: 32.2%

Cn1cc2c(C(=O)N[C@H]3CC[C@H](CCN4CCc5sc(OCC(C)(F)F)nc5C4)CC3)c(F)ccc2n1 [Example I-103]
Ki [1]: 0.17 nM | Ki [2, 5]: 340 nM | inhibition at 3 µM [3]: 26%

Cn1cc(CC(=O)N[C@H]2CC[C@](F)(CCN3CCc4ccc(OC5CCC5)nc4CC3)CC2)cn1 [Example I-104]
Ki [1]: 0.68 nM | Ki [2, 5]: > 2300 nM | inhibition at 3 µM [3]: 16.3%

Cc1cnc(CC(=O)N[C@H]2CC[C@](F)(CCN3CCc4ccc(OC5CCC5)nc4CC3)CC2)o1 [Example I-105]
Ki [1]: 0.96 nM | Ki [2, 5]: > 2300 nM | inhibition at 3 µM [3]: 30.1%

Cc1nc(CC(=O)N[C@H]2CC[C@H](CCN3CCc4nc(OCC(F)(F)F)sc4CC3)CC2)n(C)n1 [Example I-107]
Ki [1]: 0.54 nM | Ki [2, 5]: 1000 nM | inhibition at 3 µM [3]: 3.75%

CC[C@@H](C)Oc1ccc2c(n1)CCN(CC[C@]1(F)CC[C@@H](NC(=O)Cc3nnc(C)o3)CC1)CC2 [Example I-108]
Ki [1]: 0.89 nM | Ki [2, 5]: 1200 nM | inhibition at 3 µM [3]: 1.06%

CC[C@@H](C)Oc1ccc2c(n1)CCN(CC[C@]1(F)CC[C@@H](NC(=O)Cc3nnc(C)s3)CC1)CC2 [Example I-109]
Ki [1]: 0.26 nM | Ki [2, 5]: 610 nM | inhibition at 3 µM [3]: 27%

CC[C@@H](C)Oc1ccc2c(n1)CCN(CC[C@H]1CC[C@H](NC(=O)Cc3cnn(C)n3)CC1)CC2 [Example I-111]
Ki [1]: 0.17 nM | Ki [2, 5]: 1600 nM | inhibition at 3 µM [3]: 14.6%

Cn1c(C(=O)N[C@H]2CC[C@](F)(CCN3CCc4nc(OCCC(F)(F)F)sc4CC3)CC2)cccc1=O [Example I-113]
Ki [1]: 0.87 nM | Ki [2, 5]: > 2200 nM | inhibition at 3 µM [3]: 6.89%

Cc1nc(CC(=O)N[C@H]2CC[C@](F)(CCN3CCc4nc(OCCC(F)(F)F)sc4CC3)CC2)no1 [Example I-114]
Ki [1]: 0.59 nM | Ki [2, 5]: > 2200 nM | inhibition at 3 µM [3]: 29%

COC(CN1CCc2sc(OCC(F)(F)F)nc2C1)[C@H]1CC[C@H](NC(=O)c2cccc3nn(C)cc23)CC1 (some centres unmarked) [Example I-186]
Ki [1]: 0.22 nM | Ki [2, 5]: 270 nM | inhibition at 3 µM [3]: 16.8%

Cn1cc2c(C(=O)NC34CCC(CCN5CCc6nc(OCC(F)(F)F)sc6CC5)(CC3)CC4)cccc2n1 [II-8]
Ki [1]: 0.084 nM | Ki ([2]; [3H]-Methylspiperone 1.2 nM): 1600 nM | solubility [4, 6]: > 50 µM | solubility [4, 7]: > 50 µM

Cc1ncc(OCC(=O)NC23CCC(CCN4CCc5nc(OCC(F)(F)F)sc5CC4)(CC2)CC3)cn1 [II-9]
Ki [1]: 0.12 nM | Ki ([2]; [3H]-Methylspiperone 1.2 nM): 960 nM | solubility [4, 6]: > 50 µM | solubility [4, 7]: > 50 µM

Cn1ncc(CC(=O)N[C@H]2CC[C@](F)(CCN3CCc4nc(OCC(F)(F)F)sc4CC3)CC2)n1 [I′-37]
Ki [1]: 0.18 nM | Ki ([2]; [3H]-Methylspiperone 1.2 nM): 1600 nM | inhibition at 3 µM [3]: 19.6%

Cn1ncc(CC(=O)N[C@H]2CC[C@H](CCN3CCc4nc(OCC(C)(F)F)sc4CC3)CC2)n1 [I′-38]
Ki [1]: 0.043 nM | Ki ([2]; [3H]-Methylspiperone 1.2 nM): 1000 nM | inhibition at 3 µM [3]: 20.6%

Cn1ncc(CC(=O)N[C@H]2CC[C@](F)(CCN3CCc4nc(OCC(F)F)sc4CC3)CC2)n1 [I′-41]
Ki [1]: 0.49 nM | Ki ([2]; [3H]-Methylspiperone 1.2 nM): 1900 nM | inhibition at 3 µM [3]: 24%
